From PMC7308888, “Development of a cell-free split-luciferase biochemical assay as a tool for screening for inhibitors of challenging protein-protein interaction targets” (Wellcome Open Research, 2020)

Biological target: T1, KRAS-G12C (Homo sapiens, UniProt P01116, G12C)
T1 construct: full-length KRAS-G12C, Sm-BiT fused at the N-terminus; with p110α RBD (aa133-314), LgBiT fusion
Test: NanoBiT split-luciferase KRAS/RBDα interaction assay in HEK293 cell lysate
Format: biochemical

## Cn1cnc(Cn2ccc3ccc(CNCc4[nH]c5ccccc5c4[C@H]4NC(=O)c5ccc(O)cc54)cc32)c1 [BI-2852]
  NanoBiT split-luciferase KRAS/RBDα interaction assay in HEK293 cell lysate: ~ 1 µM
